No end group written: not given here.
Legend:
[1] = tested on: Inducible nitric oxide synthase; assay: Inducible nitric oxide synthase inhibition in lysate of Pg-LPS stimulated THP-1 cells; type: cell-based, human; settings: for Inducible nitric oxide synthase Percentage inhibition Average / Inducible nitric oxide synthase Percentage inhibition 1 / Inducible nitric oxide synthase Percentage inhibition 2: Pg-LPS 1 µg/mL, 24 h; for Inducible nitric oxide synthase Percentage inhibition Average: mean of duplicates; for Inducible nitric oxide synthase Percentage inhibition 1: replicate 1; for Inducible nitric oxide synthase Percentage inhibition 2: replicate 2
Experimental: (§1) For inducing differentiation of THP-1 cells into macrophages, the cell line was premixed with 25 ng/mL PMA and incubated for 48 hours. After incubation, 5x10^4 cells were activated with Pg-LPS (LPS: 1 µg/mL) for one hour. Pg-LPS stimulated cells were exposed to different concentrations (6.25, 12.5, and 25 ng/mL) of β-defensin 1 and incubated for 24 hours. After incubation, the following anti-inflammatory assays were conducted utilizing the cell lysate.
Nitric oxide synthase was measured using the method reported by Salter et al.. The cell lysate was homogenized in 2 ml of 4-(2-hydroxyethyl)-1-piperazineethanesulfonic acid (HEPES) buffer. The assay system contained 0.1 mL of 2 µmol/L L-Arginine, 0.1 mL of 4 µmol/L manganese chloride, 0.1 mL of 10 mmol/L 30 µg dithiothreitol (DTT), 0.1 mL of 1 mmol/L NADPH, 0.1 mL of 4 µmol/L tetrahydropterin, 0.1 mL of 10µmol/L oxygenated hemoglobin, and 0.1 mL of cell lysate. Enzyme activity was measured by recording an increase in absorbance at 401 nm, and the following equation was used: […]

COX = assay: Cyclooxygenase (COX) activity inhibition in lysate of Pg-LPS stimulated THP-1 cells; type: cell-based, human; settings: for COX Percentage inhibition Average / COX Percentage inhibition 1 / COX Percentage inhibition 2: Pg-LPS 1 µg/mL, 24 h; for COX Percentage inhibition Average: mean of duplicates; for COX Percentage inhibition 1: replicate 1; for COX Percentage inhibition 2: replicate 2
Experimental: as §1
The cyclooxygenase (COX) activity was assayed by the method of Walker and Gierse. The cell lysate was incubated for one minute at 25°C with Tris-HCl buffer (pH 8), glutathione 5 mM/L, and hemoglobin 5 mM/L. Arachidonic acid 200 mM/L was added to initiate the reaction, and after 20 minutes at 37°C, 200 µL of 10% trichloroacetic acid in 1 N hydrochloric acid was added to terminate the reaction. After centrifugation and addition of 200 µL of 1% thiobarbituric acid, the tubes were boiled for 20 minutes. After cooling, the tubes were centrifuged for three minutes. By reading absorbance at […], COX activity was measured, and the percentage of COX activity inhibition was calculated as per the following formula

[2] = molecular docking; cited from earlier work
Description: Two important functions of macrophages are to eliminate pathogens through phagocytosis and apoptosis of inflammatory cells and their subsequent clearance (efferocytosis). The present study analyzed the role of AMP, β-defensin 1, in Pg-LPS-stimulated THP-1 differentiated macrophage cells.

LOX = assay: Lipoxygenase (LOX) activity inhibition in lysate of Pg-LPS stimulated THP-1 cells; type: cell-based, human; settings: for LOX Percentage inhibition Average / LOX Percentage inhibition 1 / LOX Percentage inhibition 2: Pg-LPS 1 µg/mL, 24 h; for LOX Percentage inhibition Average: mean of duplicates; for LOX Percentage inhibition 1: replicate 1; for LOX Percentage inhibition 2: replicate 2
Experimental: as §1
The lipoxygenase (LOX) activity was determined using the method described by Axelrod in 1981 [12]. The reaction mixture consisted of 50 µL of cell lysate, Tris-HCl buffer (pH 7.4), and 200 µL of sodium linoleate. By determining absorbance at 234 nm (Agilent Cary 60), the formation of […], an indicator of LOX activity, was tracked. The percentage inhibition of the enzyme was computed as […]

THP-1 cells = assay: Intracellular ROS generation, DCFDA assay; type: cell-based, human; settings: β-defensin 1 22.62 ng/mL 24 h after Pg-LPS 1 µg/mL 1 h; DCFDA 30 min, ex 470 nm, em 635 nm; untreated control 2379
Experimental: Untreated control and Pg-LPS treated wells were also maintained. The cells were washed with PBS, and 50 µl of Dichlorodihydrofluorescein diacetate (DCFDA) was added, followed by incubation for 30 minutes. After incubation, excess dye was removed with PBS, and fluorescence was observed using a fluorescent microscope (Olympus CKX41 with Optika Pro5 CCD camera) and quantified with a fluorimeter at 470 nm excitation and emission at […] (Qubit 3.0, Life Technologies, USA), displaying the results in arbitrary units (AU).
The effect of β-defensin 1 on ROS generation in THP-1 cells stimulated with Pg-LPS was studied. DCFDA, a fluorogenic dye, measures hydroxyl, peroxyl, and other ROS activities within the cell. After entering the cell, DCFDA is deacetylated by cellular esterases into a non-fluorescent compound. This nonfluorescent chemical is then oxidized by ROS into […] (DCF), which, upon excitation with a blue filter, emits green fluorescence. When THP-1 cells were stimulated with Pg-LPS, there was a considerable increase in fluorescence, which decreased upon treatment with β-defensin 1, as shown in Figure 7 and Table 2.

[3] = 6.25, 12.5, and 25 ng/mL, Pg-LPS stimulated

β-defensin 1: β-Defensin 1 peptide was purchased from ThermoFisher Scientific, USA; cationic antimicrobial peptide (DHYNCVSSGGQCLYSACPIFTKIQGTCYRGKAKCCK; ends and bridges not checked; cysteine pairing not given here; UniProt P60022 33-68, looked up)
Inducible nitric oxide synthase Percentage inhibition Average ([1]; 6.25 ng/mL): 19.08%
Inducible nitric oxide synthase Percentage inhibition 1 ([1]; 6.25 ng/mL): 18.99%
Inducible nitric oxide synthase Percentage inhibition 2 ([1]; 6.25 ng/mL): 19.17%
Inducible nitric oxide synthase Percentage inhibition Average ([1]; 12.5 ng/mL): 34.275%
Inducible nitric oxide synthase Percentage inhibition 1 ([1]; 12.5 ng/mL): 34.63%
Inducible nitric oxide synthase Percentage inhibition 2 ([1]; 12.5 ng/mL): 33.92%
Inducible nitric oxide synthase Percentage inhibition Average ([1]; 25 ng/mL): 50.135%
Inducible nitric oxide synthase Percentage inhibition 1 ([1]; 25 ng/mL): 50.27%
Inducible nitric oxide synthase Percentage inhibition 2 ([1]; 25 ng/mL): 50%
inducible nitric oxide synthase percentage inhibition (in words) [1, 3]: increased in a concentration-dependent manner
COX Percentage inhibition Average (COX; 6.25 ng/mL): 19.085%
COX Percentage inhibition 1 (COX; 6.25 ng/mL): 19.77%
COX Percentage inhibition 2 (COX; 6.25 ng/mL): 18.4%
COX Percentage inhibition Average (COX; 12.5 ng/mL): 35.75%
COX Percentage inhibition 1 (COX; 12.5 ng/mL): 36.41%
COX Percentage inhibition 2 (COX; 12.5 ng/mL): 35.09%
COX Percentage inhibition Average (COX; 25 ng/mL): 53.03%
COX Percentage inhibition 1 (COX; 25 ng/mL): 53.21%
COX Percentage inhibition 2 (COX; 25 ng/mL): 52.85%
COX percentage inhibition (in words) (COX; [3]): increased in a concentration-dependent manner
IC50 (COX inhibition assay) (COX; Pg-LPS 1 µg/mL 1 h, then β-defensin 1 24 h): 0.02262 µg/mL
binding affinity with Pg-LPS (docking) [2]: good binding affinity with Pg-LPS
LOX Percentage inhibition Average (LOX; 6.25 ng/mL): 21.485%
LOX Percentage inhibition 1 (LOX; 6.25 ng/mL): 21.23%
LOX Percentage inhibition 2 (LOX; 6.25 ng/mL): 21.74%
LOX Percentage inhibition Average (LOX; 12.5 ng/mL): 38.08%
LOX Percentage inhibition 1 (LOX; 12.5 ng/mL): 38.85%
LOX Percentage inhibition 2 (LOX; 12.5 ng/mL): 37.31%
LOX Percentage inhibition Average (LOX; 25 ng/mL): 54.675%
LOX Percentage inhibition 1 (LOX; 25 ng/mL): 55.2%
LOX Percentage inhibition 2 (LOX; 25 ng/mL): 54.15%
LOX percentage inhibition (in words) (LOX; [3]): increased in a concentration-dependent manner
ROS generation, Fluorescence intensity (THP-1 cells): 5006.24 AU
